Test results: patent publication US20240246942A1, “KINASE INHIBITORS FOR THE TREATMENT OF NEURODEGENERATIVE DISEASES” (priority 2020, published 2024)

What was measured:
Assay in all cases: biochemical
[1] = biological target: T1, panel of 374 wild-type kinases (Homo sapiens, UniProt P08631); conditions: read-out: % Enzyme Activity (relative to DMSO controls), HCK
T1 construct: purchased Reaction Biology Corporation

[2] = biological target: T2, panel of 374 wild-type kinases (Homo sapiens, UniProt Q9NQU5); conditions: read-out: % Enzyme Activity (relative to DMSO controls), kinase PAK6
T2 construct: purchased Reaction Biology Corporation

[3] = biological target: T3, panel of 374 wild-type kinases (Homo sapiens, UniProt Q15303); conditions: read-out: % Enzyme Activity (relative to DMSO controls), ERBB4/HER4
T3 construct: purchased Reaction Biology Corporation
T3 sequence (Q15303 26-1308): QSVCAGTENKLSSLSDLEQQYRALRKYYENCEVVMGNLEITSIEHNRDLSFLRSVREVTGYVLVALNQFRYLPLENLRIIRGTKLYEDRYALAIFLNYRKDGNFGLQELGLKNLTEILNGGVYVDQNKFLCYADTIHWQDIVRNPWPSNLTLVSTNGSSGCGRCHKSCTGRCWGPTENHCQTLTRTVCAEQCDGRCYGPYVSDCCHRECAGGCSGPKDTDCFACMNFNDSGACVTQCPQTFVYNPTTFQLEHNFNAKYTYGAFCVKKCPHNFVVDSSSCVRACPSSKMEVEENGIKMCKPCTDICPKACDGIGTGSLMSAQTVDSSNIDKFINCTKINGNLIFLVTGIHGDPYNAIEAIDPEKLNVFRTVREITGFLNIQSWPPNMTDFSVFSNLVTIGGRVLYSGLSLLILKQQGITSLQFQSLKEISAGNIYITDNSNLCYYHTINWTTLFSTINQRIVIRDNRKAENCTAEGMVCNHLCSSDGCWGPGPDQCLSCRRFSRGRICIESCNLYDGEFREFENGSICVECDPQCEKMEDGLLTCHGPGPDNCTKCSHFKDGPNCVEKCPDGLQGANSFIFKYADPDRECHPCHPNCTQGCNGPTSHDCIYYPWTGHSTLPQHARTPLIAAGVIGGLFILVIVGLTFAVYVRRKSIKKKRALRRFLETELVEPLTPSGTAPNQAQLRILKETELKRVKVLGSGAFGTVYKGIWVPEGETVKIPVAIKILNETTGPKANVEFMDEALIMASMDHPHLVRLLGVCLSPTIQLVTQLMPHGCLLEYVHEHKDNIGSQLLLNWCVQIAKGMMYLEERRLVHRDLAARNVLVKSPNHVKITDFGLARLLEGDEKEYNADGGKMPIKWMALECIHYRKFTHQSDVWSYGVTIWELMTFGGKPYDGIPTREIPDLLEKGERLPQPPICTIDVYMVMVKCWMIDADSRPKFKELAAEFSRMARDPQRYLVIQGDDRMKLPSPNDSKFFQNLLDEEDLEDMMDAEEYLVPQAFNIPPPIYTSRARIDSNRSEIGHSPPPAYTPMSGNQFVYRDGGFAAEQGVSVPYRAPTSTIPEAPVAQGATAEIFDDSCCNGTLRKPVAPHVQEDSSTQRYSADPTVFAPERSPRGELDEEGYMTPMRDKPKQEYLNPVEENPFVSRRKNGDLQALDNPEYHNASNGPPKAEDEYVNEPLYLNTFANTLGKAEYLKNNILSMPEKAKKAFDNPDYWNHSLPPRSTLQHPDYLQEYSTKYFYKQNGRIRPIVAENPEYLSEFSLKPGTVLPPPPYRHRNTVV

[4] = biological target: T4, panel of 374 wild-type kinases (Homo sapiens, UniProt Q6DT37); conditions: read-out: % Enzyme Activity (relative to DMSO controls), DMPK2
T4 construct: purchased Reaction Biology Corporation
T4 sequence (Q6DT37 whole entry): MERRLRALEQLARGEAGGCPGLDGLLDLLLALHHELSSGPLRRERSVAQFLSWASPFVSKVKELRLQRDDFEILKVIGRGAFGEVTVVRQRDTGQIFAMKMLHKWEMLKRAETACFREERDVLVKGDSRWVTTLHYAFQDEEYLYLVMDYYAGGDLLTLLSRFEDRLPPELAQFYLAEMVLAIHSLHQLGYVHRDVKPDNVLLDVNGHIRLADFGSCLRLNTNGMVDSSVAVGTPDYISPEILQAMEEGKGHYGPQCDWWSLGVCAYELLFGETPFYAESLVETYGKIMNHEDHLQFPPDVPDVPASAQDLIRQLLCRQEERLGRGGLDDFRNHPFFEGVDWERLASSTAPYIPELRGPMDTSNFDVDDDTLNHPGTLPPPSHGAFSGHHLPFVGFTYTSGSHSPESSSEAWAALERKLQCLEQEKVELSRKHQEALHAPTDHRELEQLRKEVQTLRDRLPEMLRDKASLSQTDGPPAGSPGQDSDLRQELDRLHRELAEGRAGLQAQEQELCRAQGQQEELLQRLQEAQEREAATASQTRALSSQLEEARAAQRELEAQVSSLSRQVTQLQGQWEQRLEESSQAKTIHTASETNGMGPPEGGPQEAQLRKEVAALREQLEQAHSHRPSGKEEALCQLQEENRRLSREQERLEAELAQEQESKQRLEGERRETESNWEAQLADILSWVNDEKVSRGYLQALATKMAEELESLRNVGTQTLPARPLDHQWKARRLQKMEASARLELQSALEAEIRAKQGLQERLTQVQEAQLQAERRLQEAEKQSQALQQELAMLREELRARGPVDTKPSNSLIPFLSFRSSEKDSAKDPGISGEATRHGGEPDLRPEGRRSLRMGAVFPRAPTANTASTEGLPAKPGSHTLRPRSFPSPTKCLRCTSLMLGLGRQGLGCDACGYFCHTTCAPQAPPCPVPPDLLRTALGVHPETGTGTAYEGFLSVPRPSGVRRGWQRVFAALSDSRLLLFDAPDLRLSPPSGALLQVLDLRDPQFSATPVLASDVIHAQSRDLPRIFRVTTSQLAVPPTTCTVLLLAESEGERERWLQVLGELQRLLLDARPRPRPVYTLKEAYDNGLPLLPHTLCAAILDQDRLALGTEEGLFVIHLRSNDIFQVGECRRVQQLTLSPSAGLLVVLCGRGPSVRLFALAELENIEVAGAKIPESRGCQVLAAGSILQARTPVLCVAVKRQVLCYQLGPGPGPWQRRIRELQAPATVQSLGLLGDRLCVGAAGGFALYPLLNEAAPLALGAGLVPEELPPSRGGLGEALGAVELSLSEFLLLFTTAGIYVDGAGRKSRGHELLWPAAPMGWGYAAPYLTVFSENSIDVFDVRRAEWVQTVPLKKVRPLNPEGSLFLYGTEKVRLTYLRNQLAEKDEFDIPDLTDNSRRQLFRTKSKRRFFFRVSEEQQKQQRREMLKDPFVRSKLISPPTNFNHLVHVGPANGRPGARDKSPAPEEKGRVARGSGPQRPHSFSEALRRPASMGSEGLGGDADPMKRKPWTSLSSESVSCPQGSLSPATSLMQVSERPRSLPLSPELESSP

[5] = biological target: T5, panel of 374 wild-type kinases (Homo sapiens, UniProt Q13627); conditions: read-out: % Enzyme Activity (relative to DMSO controls), DYRK1/DYRK1A
T5 construct: purchased Reaction Biology Corporation

[6] = biological target: T6, panel of 374 wild-type kinases (Homo sapiens, UniProt P09769); conditions: read-out: % Enzyme Activity (relative to DMSO controls), FGR
T6 construct: purchased Reaction Biology Corporation
T6 sequence (P09769 whole entry): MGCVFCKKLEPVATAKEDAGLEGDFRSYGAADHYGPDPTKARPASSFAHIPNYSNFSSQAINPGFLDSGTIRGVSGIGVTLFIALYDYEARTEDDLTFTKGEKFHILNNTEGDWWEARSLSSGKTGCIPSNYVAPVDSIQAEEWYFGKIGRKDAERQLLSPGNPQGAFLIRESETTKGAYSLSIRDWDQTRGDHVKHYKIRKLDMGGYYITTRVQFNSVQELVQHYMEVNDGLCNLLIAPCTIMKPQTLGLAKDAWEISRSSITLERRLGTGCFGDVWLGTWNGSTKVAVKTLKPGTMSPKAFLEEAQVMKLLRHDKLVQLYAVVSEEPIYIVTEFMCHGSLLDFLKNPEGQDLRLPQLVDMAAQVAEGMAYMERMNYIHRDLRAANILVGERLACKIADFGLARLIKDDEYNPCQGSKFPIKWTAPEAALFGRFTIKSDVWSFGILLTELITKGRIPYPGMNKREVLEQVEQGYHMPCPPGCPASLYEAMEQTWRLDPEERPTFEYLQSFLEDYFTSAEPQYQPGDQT

[7] = biological target: T7, panel of 374 wild-type kinases (Homo sapiens, UniProt P54764); conditions: read-out: % Enzyme Activity (relative to DMSO controls), EPHA4
T7 construct: purchased Reaction Biology Corporation

[8] = biological target: T8, panel of 374 wild-type kinases (Homo sapiens, UniProt Q9UBE8); conditions: read-out: % Enzyme Activity (relative to DMSO controls), NLK
T8 construct: purchased Reaction Biology Corporation
T8 sequence (Q9UBE8 1-527): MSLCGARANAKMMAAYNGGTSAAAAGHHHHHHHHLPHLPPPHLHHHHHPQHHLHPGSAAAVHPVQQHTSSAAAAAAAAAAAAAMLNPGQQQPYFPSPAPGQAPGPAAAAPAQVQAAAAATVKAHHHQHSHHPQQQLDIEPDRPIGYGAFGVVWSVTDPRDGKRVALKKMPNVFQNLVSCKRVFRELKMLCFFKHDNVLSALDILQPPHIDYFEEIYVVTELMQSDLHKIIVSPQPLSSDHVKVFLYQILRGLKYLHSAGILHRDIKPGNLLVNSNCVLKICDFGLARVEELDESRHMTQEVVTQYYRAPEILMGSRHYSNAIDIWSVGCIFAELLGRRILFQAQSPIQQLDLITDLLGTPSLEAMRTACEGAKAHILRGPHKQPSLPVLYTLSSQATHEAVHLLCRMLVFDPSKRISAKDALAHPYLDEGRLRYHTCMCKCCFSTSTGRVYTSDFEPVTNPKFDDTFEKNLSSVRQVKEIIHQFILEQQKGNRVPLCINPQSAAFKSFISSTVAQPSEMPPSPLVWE

[9] = biological target: T9, panel of 374 wild-type kinases (Homo sapiens, UniProt Q8WXR4); conditions: read-out: % Enzyme Activity (relative to DMSO controls), MYO3b
T9 construct: purchased Reaction Biology Corporation
T9 sequence (Q8WXR4 1-1341): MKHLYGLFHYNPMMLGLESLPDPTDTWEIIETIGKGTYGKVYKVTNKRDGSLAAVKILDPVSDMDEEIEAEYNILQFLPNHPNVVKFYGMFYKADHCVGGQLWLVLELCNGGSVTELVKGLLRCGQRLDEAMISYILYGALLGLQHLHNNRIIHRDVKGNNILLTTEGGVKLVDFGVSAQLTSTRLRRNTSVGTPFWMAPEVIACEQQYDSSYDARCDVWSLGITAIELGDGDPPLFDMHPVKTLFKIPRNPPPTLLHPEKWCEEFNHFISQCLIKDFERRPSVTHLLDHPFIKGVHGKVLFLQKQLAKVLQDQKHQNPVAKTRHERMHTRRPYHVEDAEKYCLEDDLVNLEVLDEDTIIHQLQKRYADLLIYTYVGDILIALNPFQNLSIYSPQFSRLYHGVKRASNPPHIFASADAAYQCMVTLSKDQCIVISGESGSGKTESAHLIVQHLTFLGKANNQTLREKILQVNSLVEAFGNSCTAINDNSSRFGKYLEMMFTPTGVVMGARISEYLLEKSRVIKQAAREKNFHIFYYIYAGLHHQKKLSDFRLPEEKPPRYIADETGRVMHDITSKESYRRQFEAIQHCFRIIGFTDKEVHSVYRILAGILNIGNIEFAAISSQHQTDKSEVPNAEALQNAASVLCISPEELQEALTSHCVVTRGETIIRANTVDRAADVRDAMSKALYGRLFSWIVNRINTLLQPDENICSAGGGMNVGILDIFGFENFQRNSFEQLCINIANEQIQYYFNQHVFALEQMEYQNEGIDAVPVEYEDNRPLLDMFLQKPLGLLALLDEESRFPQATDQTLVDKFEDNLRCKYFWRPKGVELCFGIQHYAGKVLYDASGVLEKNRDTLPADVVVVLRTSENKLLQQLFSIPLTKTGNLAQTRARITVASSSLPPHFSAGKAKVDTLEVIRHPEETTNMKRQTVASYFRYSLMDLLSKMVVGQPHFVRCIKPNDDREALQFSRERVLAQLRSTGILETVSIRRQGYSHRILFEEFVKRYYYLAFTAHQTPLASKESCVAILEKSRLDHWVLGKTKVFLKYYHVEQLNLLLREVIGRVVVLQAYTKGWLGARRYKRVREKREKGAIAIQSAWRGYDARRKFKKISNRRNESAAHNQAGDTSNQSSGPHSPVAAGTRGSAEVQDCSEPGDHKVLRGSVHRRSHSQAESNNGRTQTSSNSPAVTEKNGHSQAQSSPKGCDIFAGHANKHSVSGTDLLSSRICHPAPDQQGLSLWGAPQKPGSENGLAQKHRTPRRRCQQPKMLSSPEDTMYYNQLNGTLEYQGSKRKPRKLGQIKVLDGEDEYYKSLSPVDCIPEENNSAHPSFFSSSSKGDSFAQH

[10] = biological target: T10, panel of 374 wild-type kinases (Homo sapiens, UniProt P07949); conditions: read-out: % Enzyme Activity (relative to DMSO controls), kinase RET
T10 construct: purchased Reaction Biology Corporation
T10 sequence (P07949 29-1114): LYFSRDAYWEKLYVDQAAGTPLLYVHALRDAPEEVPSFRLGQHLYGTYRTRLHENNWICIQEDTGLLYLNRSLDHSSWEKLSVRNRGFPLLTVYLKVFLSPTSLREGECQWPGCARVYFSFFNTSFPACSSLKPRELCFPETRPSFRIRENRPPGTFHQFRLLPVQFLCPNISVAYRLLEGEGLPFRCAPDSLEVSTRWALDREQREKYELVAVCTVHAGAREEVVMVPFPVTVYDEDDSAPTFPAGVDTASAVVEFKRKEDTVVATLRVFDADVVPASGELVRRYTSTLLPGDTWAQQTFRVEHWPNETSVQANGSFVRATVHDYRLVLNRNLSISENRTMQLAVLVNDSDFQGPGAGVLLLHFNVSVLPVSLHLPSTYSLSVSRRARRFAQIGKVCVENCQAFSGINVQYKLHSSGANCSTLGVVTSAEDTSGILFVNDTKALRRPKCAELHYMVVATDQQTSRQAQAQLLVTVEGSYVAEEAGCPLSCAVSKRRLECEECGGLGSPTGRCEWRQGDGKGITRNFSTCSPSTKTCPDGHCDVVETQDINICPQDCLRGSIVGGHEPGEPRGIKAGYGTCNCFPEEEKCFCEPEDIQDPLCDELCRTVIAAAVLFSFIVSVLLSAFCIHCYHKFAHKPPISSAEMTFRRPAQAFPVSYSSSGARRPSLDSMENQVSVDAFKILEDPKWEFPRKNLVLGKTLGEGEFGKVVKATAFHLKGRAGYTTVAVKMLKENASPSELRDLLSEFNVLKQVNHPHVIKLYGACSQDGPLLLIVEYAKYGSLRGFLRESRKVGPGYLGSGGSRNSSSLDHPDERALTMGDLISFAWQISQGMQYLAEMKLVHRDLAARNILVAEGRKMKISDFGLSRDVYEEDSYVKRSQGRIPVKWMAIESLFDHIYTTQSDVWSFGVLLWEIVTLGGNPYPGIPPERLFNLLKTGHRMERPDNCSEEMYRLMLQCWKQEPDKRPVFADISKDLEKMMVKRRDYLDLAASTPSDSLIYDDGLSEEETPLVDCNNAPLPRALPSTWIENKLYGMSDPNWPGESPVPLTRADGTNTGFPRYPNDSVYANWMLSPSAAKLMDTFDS

T1 sequence (P08631 whole entry): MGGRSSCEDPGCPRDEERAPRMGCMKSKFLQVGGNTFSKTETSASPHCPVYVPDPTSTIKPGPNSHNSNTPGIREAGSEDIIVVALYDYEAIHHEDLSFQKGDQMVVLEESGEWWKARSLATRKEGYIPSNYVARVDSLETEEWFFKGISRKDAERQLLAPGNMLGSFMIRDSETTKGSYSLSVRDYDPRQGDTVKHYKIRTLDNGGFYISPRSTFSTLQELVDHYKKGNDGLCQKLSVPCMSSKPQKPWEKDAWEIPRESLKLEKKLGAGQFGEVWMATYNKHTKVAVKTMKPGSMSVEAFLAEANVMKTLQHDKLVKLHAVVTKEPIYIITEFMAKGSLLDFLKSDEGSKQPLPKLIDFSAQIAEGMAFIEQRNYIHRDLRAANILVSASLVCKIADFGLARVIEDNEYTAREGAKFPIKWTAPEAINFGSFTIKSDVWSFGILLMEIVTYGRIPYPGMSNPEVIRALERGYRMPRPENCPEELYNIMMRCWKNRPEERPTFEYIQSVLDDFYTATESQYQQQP

| Structure (SMILES) | remaining activity at 5 µM [1] | remaining activity at 5 µM [2] | remaining activity at 5 µM [3] | remaining activity at 5 µM [4] | remaining activity at 5 µM [5] | remaining activity at 5 µM [6] | remaining activity at 5 µM [7] | remaining activity at 5 µM [8] | remaining activity at 5 µM [9] | remaining activity at 5 µM [10] | remaining activity at 10 µM ([1]; 10 uM) | remaining activity at 10 µM ([2]; 10 uM) | remaining activity at 10 µM ([3]; 10 uM) | remaining activity at 10 µM ([4]; 10 uM) | remaining activity at 10 µM ([5]; 10 uM) | remaining activity at 10 µM ([6]; 10 uM) | remaining activity at 10 µM ([7]; 10 uM) | remaining activity at 10 µM ([8]; 10 uM) | remaining activity at 10 µM ([9]; 10 uM) | remaining activity at 10 µM ([10]; 10 uM) |
| --- | --- | --- | --- | --- | --- | --- | --- | --- | --- | --- | --- | --- | --- | --- | --- | --- | --- | --- | --- | --- |
| O=C(Nc1cnn(-c2csc(C(=O)NC3COC3)c2)c1)Nc1c(F)cccc1Cl [Compound 25, 4-(4-(3-(2-chloro-6-fluorophenyl)ureido)-1H-pyrazol-1-yl)-N-(oxetan-3-yl)thiophene-2-carboxamide] | 91.3% | 92.9% | 102% | 119% | 75.1% | 95.5% | 89.1% | 87.4% | 101% | 98.1% |  |  |  |  |  |  |  |  |  |  |
| O=C(Nc1cnn(-c2csc(C(=O)NC3COC3)c2)c1)Nc1ccccc1Cl [Compound 17, 4-(4-(3-(2-chlorophenyl)ureido)-1H-pyrazol-1-yl)-N-(oxetan-3-yl)thiophene-2-carboxamide] | 94% | 131% | 105% | 87% | 86% | 90% | 100% | 99.5% | 128% | 97.8% |  |  |  |  |  |  |  |  |  |  |
| Cc1sc(C(=O)NC2COC2)cc1-n1cc(NC(=O)Nc2c(F)cccc2Cl)cn1 [Compound 27, 4-(4-(3-(2-chloro-6-fluorophenyl)ureido)-1H-pyrazol-1-yl)-5-methyl-N-(oxetan-3-yl)thiophene-2-carboxamide] |  |  |  |  |  |  |  |  |  |  | 95% | 99.9% | 95% | 118% | 95.5% | 80.2% | 116% | 85.2% | 78.7% | 113% |
